Measured values reported in the supplement of paper PMC4862054.

Legend:
Conditions in all cases: incubation time: 72 h
MCF-10A = assay: drug sensitivity score (DSS), CellTiter-Glo (DSS (AUC-based score)); higher = stronger drug effect (viability inhibition or cytotoxicity); extreme values may be limits of the assay
How it was run: (§1)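 Breast cancer cell lines were seeded in 20 µl suspension into 384-well plates already holding compound and incubated for 72 h. Each compound was tested at 5 concentrations in 10-fold steps across its own 10,000-fold range. Plates were normalised to 0.1 % DMSO and a positive kill control after CellTox Green and then CellTiter-Glo readings. The area under the fitted dose-response curve served as the basis for the drug sensitivity score.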

MDA-MB-436 = assay: as above
How it was run: as §1

HCC1143 [1] = assay: as above
How it was run: as §1

MFM-223 = assay: as above
How it was run: as §1

MDA-MB-453 [2] = assay: as above
How it was run: as §1

DU-4475 [3] = assay: as above
How it was run: as §1

HDQ-P1 [4] = assay: as above
How it was run: as §1

HCC1599 [5] = assay: as above
How it was run: as §1

MDA-MB-468 = assay: normalised viability (% of control), CellTiter-Blue; higher = more viable cells (about 100 = DMSO control)
How it was run: (§2)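 Each entry is normalised viability at a single listed concentration within a series. It comes from breast cancer cell lines incubated 72 h with compound in 384-well plates, then measured with CellTiter-Blue fluorescence at 560/590 nm. Every plate was normalised between vehicle (100) and a positive kill control (0).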

HCC1143 [6] = assay: as above
How it was run: as §2

HCC1937 = assay: as above
How it was run: as §2

BT-474 = assay: as above
How it was run: as §2

CAL-51 [7] = assay: as above
How it was run: as §2

SK-BR-3 = assay: as above
How it was run: as §2

CAL-85-1 [8] = assay: as above
How it was run: as §2

BT-549 = assay: as above
How it was run: as §2

HDQ-P1 [9] = assay: as above
How it was run: as §2

HCC1599 [10] = assay: as above
How it was run: as §2

MDA-MB-231 = assay: as above
How it was run: as §2

MDA-MB-453 [11] = assay: normalised viability (% of control), CellTiter-Blue; higher = more viable cells (about 100 = DMSO control)
Description: (§3)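 DSRT, CellTiter-Blue viability, 72 h incubation. Signal is normalised to DMSO and benzethonium chloride controls. Value is the normalised response at dose 8.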

CAL-51 [12] = assay: as above; remark: listed apart in the source
Description: as §3

DU-4475 [13] = assay: as above
Description: as §3

CAL-85-1 [14] = assay: as above; remark: listed apart in the source
Description: as §3

CAL-148 = assay: as above
Description: as §3

HDQ-P1 [15] = assay: as above; remark: listed apart in the source
Description: as §3

CCN(CC)CCCC(C)Nc1c2ccc(Cl)cc2nc2ccc(OC)cc12 (stereo unspecified) [Mepacrine]
Conditions	drug sensitivity score
DU-4475 [3]	0
HCC1143 [1]	0
HCC1599 [5]	0
HDQ-P1 [4]	0
MCF-10A	0
MDA-MB-436	0
MDA-MB-453 [2]	0
MFM-223	0

Conditions	normalised viability [%]
BT-474, 0.99 nM	113
BT-474, 10 nM	111
BT-474, 99 nM	104
BT-474, 990 nM	41.1
BT-474, 1000 nM	116
BT-474, 10000 nM	2.65
BT-549, 0.99 nM	87
BT-549, 10 nM	87.2
BT-549, 99 nM	82.2
BT-549, 990 nM	37.6
BT-549, 1000 nM	88.9
BT-549, 10000 nM	17.8
CAL-51 [7], 0.297 nM	89.1
CAL-51 [7], 2.97 nM	91.4
CAL-51 [7], 3 nM	105
CAL-51 [7], 9.9 nM	96.2
CAL-51 [7], 30 nM	97.8
CAL-51 [7], 100 nM	93.3
CAL-51 [12], 297 nM	93.3
CAL-51 [12], 3000 nM	77.8
CAL-85-1 [8], 0.297 nM	114
CAL-85-1 [8], 2.97 nM	95.7
CAL-85-1 [8], 3 nM	94.3
CAL-85-1 [8], 9.9 nM	98.9
CAL-85-1 [8], 30 nM	88.1
CAL-85-1 [8], 100 nM	105
CAL-85-1 [14], 297 nM	87.8
CAL-85-1 [14], 3000 nM	59.5
CAL-148, 297 nM	73.2
CAL-148, 3000 nM	56.4
DU-4475 [13], 297 nM	84
DU-4475 [13], 3000 nM	69.1
HCC1143 [6], 0.99 nM	123
HCC1143 [6], 10 nM	93.5
HCC1143 [6], 99 nM	114
HCC1143 [6], 990 nM	45
HCC1143 [6], 1000 nM	96.1
HCC1143 [6], 10000 nM	35.5
HCC1599 [10], 0.99 nM	105
HCC1599 [10], 10 nM	85.5
HCC1599 [10], 99 nM	82.1
HCC1599 [10], 990 nM	67.3
HCC1599 [10], 1000 nM	79.5
HCC1599 [10], 10000 nM	30.9
HCC1937, 0.99 nM	118
HCC1937, 10 nM	108
HCC1937, 99 nM	78.7
HCC1937, 990 nM	15.8
HCC1937, 1000 nM	63.6
HCC1937, 10000 nM	10.7
HDQ-P1 [9], 0.297 nM	113
HDQ-P1 [9], 2.97 nM	109
HDQ-P1 [9], 3 nM	112
HDQ-P1 [9], 9.9 nM	104
HDQ-P1 [9], 30 nM	113
HDQ-P1 [9], 100 nM	116
HDQ-P1 [15], 297 nM	56.8
HDQ-P1 [15], 3000 nM	42.9
MDA-MB-231, 0.99 nM	89.4
MDA-MB-231, 10 nM	102
MDA-MB-231, 99 nM	81.4
MDA-MB-231, 990 nM	8.45
MDA-MB-231, 1000 nM	65
MDA-MB-231, 10000 nM	7.28
MDA-MB-453 [11], 297 nM	89
MDA-MB-453 [11], 3000 nM	43.1
MDA-MB-468, 0.99 nM	108
MDA-MB-468, 10 nM	104
MDA-MB-468, 99 nM	106
MDA-MB-468, 990 nM	43.4
MDA-MB-468, 1000 nM	94.7
MDA-MB-468, 10000 nM	5.97
SK-BR-3, 0.99 nM	100
SK-BR-3, 10 nM	110
SK-BR-3, 99 nM	104
SK-BR-3, 990 nM	27.9
SK-BR-3, 1000 nM	101
SK-BR-3, 10000 nM	2.49
